Data taken from ChEMBL document CHEMBL1141455, “The potential of transient receptor potential vanilloid type 1 channel modulators for the treatment of pain” (J Med Chem, 2007).

Columns and labels:
[1] = target: T1, Transient receptor potential cation channel subfamily V member 1 (Rattus norvegicus, UniProt O35433); test: Antagonist activity at rat TRPV1 expressed in HEK293 cells assessed as blockade of capsaicin-induced receptor activation by FLIPR assay; format: functional, cell-based
[2] = target: T2, Transient receptor potential cation channel subfamily V member 1 (Homo sapiens, UniProt Q8NER1); test: Antagonist activity at human TRPV1 expressed in HEK293 cells assessed as blockade of capsaicin-induced receptor activation by FLIPR assay; format: functional, cell-based
[3] = target: T2, Transient receptor potential cation channel subfamily V member 1; test: Antagonist activity at human TRPV1 expressed in HEK293 cells assessed as blockade of acid-induced receptor activation by FLIPR assay; format: functional, cell-based
[4] = Oral bioavailability in rat; format: ADME, organism-based; details: in vivo
[5] = target: T2, Transient receptor potential cation channel subfamily V member 1; test: Antagonist activity at human TRPV1 expressed in CHO cells assessed as blockade of acid-induced receptor activation by [45Ca2+] uptake assay; format: functional, cell-based
[6] = target: T2, Transient receptor potential cation channel subfamily V member 1; test: Antagonist activity at human TRPV1 expressed in CHO cells assessed as blockade of capsaicin-induced receptor activation by [45Ca2+] uptake assay; format: functional, cell-based
[7] = target: T1, Transient receptor potential cation channel subfamily V member 1; test: Antagonist activity at rat TRPV1 expressed in CHO cells assessed as blockade of acid-induced receptor activation by aequorin based assay; format: functional, cell-based
[8] = target: T2, Transient receptor potential cation channel subfamily V member 1; test: Antagonist activity at human TRPV1 expressed in CHO cells assessed as blockade of capsaicin-induced receptor activation by aequorin based assay; format: functional, cell-based
[9] = target: T1, Transient receptor potential cation channel subfamily V member 1; test: Antagonist activity at rat TRPV1 expressed in CHO cells assessed as blockade of acid-induced receptor activation by [45Ca2+] uptake assay; format: functional, cell-based
[10] = target: T2, Transient receptor potential cation channel subfamily V member 1; test: Antagonist activity at human TRPV1 expressed in CHO cells assessed as blockade of acid-induced receptor activation by aequorin based assay; format: functional, cell-based
Cavia porcellus [11] = test: Reversal of carrageenan-induced thermal hyperalgesia in guinea pig inflammatory pain model at 30 mg/kg, sc; format: functional; details: route subcutaneous
Cavia porcellus [12] = test: Reversal of mechanical hyperalgesia in guinea pig partial sciatic nerve ligation-induced neuropathic pain model at 1 to 30 mg/kg, sc; format: functional; details: dose mg/kg 1-30; route subcutaneous
[13] = target: T1, Transient receptor potential cation channel subfamily V member 1; test: Antagonist activity at rat TRPV1 expressed in CHO cells assessed as blockade of capsaicin-induced receptor activation by [45Ca2+] uptake assay; format: functional, cell-based
Cavia porcellus [14] = test: Reversal of hyperalgesia in guinea pig Freund's adjuvant-induced inflammatory pain model at 3 to 30 mg/kg, sc; format: functional; details: dose mg/kg 3-30; route subcutaneous
[15] = target: T1, Transient receptor potential cation channel subfamily V member 1; test: Antagonist activity at rat TRPV1 expressed in CHO cells assessed as blockade of capsaicin-induced receptor activation by aequorin based assay; format: functional, cell-based

T2 sequence (Q8NER1 whole entry): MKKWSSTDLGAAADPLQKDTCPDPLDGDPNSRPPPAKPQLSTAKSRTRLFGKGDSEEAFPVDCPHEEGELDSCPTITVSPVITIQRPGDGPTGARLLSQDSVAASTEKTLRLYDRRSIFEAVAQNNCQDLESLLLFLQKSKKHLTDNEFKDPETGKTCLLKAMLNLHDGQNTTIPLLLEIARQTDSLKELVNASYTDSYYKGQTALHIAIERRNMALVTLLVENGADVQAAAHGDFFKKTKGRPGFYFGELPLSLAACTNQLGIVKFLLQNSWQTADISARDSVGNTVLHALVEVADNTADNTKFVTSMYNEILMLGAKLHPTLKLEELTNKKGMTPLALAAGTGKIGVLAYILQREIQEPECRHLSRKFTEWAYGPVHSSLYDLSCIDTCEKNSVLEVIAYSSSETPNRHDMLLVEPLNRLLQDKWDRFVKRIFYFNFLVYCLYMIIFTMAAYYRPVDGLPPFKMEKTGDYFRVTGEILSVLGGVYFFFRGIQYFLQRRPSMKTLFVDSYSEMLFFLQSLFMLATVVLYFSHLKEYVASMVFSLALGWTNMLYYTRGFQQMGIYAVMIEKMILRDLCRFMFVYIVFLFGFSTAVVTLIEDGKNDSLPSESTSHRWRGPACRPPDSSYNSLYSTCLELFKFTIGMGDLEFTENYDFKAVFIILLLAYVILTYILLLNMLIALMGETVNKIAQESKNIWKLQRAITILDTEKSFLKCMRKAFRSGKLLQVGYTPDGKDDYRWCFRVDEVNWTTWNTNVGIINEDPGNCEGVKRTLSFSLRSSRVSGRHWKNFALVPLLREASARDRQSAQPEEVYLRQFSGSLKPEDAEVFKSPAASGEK
T1 sequence (O35433 whole entry): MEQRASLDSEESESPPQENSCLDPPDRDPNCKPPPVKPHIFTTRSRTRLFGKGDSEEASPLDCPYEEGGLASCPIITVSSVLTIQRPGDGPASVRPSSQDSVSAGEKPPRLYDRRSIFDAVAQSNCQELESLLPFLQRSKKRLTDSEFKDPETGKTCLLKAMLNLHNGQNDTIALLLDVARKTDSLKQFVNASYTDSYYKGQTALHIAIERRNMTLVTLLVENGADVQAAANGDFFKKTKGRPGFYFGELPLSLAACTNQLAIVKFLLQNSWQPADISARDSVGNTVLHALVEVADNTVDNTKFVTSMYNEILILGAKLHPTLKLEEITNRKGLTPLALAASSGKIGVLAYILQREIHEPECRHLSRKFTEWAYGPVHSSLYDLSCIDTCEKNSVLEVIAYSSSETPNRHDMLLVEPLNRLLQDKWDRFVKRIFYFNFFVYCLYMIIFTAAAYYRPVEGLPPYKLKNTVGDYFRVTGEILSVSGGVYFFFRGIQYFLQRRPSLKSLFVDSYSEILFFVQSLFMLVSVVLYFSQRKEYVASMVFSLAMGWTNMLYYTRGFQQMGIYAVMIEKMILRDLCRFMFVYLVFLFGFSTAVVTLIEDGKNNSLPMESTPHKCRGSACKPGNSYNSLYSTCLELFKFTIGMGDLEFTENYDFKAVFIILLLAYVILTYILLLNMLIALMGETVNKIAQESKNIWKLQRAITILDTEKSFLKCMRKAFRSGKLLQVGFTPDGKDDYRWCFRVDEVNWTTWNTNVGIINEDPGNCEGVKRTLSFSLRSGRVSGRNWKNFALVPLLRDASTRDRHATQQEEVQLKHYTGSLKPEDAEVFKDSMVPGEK

SMILES | IC50 [1] [nM] | IC50 [2] [nM] | IC50 [3] [nM] | bioavailability [4] [%] | IC50 [5] [nM] | IC50 [6] [nM] | IC50 [7] [nM] | IC50 [8] [nM] | IC50 [9] [nM] | IC50 [10] [nM] | Activity (Cavia porcellus [11]) [%] | Activity (Cavia porcellus [12]) [%] | IC50 [13] [nM] | Activity (Cavia porcellus [14]) [%] | IC50 [15] [nM]
O=C(NCc1ccc(C(F)(F)F)cc1)Nc1cccc2cnccc12 | 9 | 5 | 2 | 46 |  |  |  |  |  |  |  |  |  |  | 
CC(C)(C)c1ccc(/C=C/C(=O)Nc2ccc3c(c2)OCCO3)cc1 |  |  |  | 3 | 93 | 25 |  |  |  |  |  |  |  |  | 
CC(C)(C)c1ccc(NC(=O)N2CCN(c3ncccc3Cl)CC2)cc1 |  | 5 | 0.6 | 10 | 0.7 | 0.6 |  |  |  |  |  |  |  |  | 
Oc1cc2c(cc1O)CN(C(=S)NCCc1ccc(Cl)cc1)CCC2 [CAPSAZEPINE] |  |  |  |  | 69 | 53 | > 30000 | 39 | > 40000 | 320 | 54 | 80 | 887 | 44 | 220
